Experimental data reported in patent US20100298141A1, “SUBSTITUTED PYRIDINE N-OXIDE HERBICIDES” (E. I. DU PONT DE NEMOURS AND COMPANY, priority 2007, published 2010).

Columns and labels:
redroot pigweed = assay: Test A pre-/postemergence greenhouse test; assay type: in vivo, Amaranthus retroflexus; settings: for Plant response rating, Pigweed: 0 to 100 scale where 0 is no effect and 100 is complete control; for Pigweed plant response rating: 0 to 100 scale
Procedure, shortened: (§1)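 Sowing in loam/sand; same-day pre (directed soil spray) and post (foliar, 1–2 leaf, 2–10 cm) treatment with surfactant-containing non-phytotoxic solvent formulation; ~10 days in greenhouse; eye-scored injury against untreated plants.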

wild oat = assay: Test C pre-/postemergence test; assay type: in vivo, Avena fatua
Procedure, shortened: (§2)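 Seeds were planted and treated preemergence with test chemical in a non-phytotoxic solvent mixture containing surfactant. Postemergence applications of the same formulation went onto plants 2 to 18 cm tall (1- to 4-leaf stage). A dash marks no test result.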

bermudagrass = assay: Test C pre-/postemergence test; assay type: in vivo, Cynodon dactylon
Procedure, shortened: as §2

blackgrass = assay: Test C pre-/postemergence test; assay type: in vivo, Alopecurus myosuroides
Procedure, shortened: as §2

kochia = assay: Test C pre-/postemergence test; assay type: in vivo, Kochia scoparia
Procedure, shortened: as §2

green foxtail = assay: Test C pre-/postemergence test; assay type: in vivo, Setaria viridis
Procedure, shortened: as §2

lambsquarters = assay: Test C pre-/postemergence test; assay type: in vivo, Chenopodium album
Procedure, shortened: as §2

morningglory = assay: Test A pre-/postemergence greenhouse test; assay type: in vivo, Ipomoea spp.; settings: for Plant response rating, Morningglory: 0 to 100 scale where 0 is no effect and 100 is complete control; for Morningglory plant response rating: 0 to 100 scale
Procedure, shortened: as §1

soybean = assay: Test C pre-/postemergence test; assay type: in vivo, Glycine max
Procedure, shortened: as §2

woolly cupgrass = assay: Test C pre-/postemergence test; assay type: in vivo, Eriochloa villosa
Procedure, shortened: as §2

duck salad = assay: Test C flooded paddy test; assay type: in vivo, Heteranthera limosa; settings: Flood
Procedure, shortened: (§3)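 Visual injury ratings against untreated controls, taken 13 to 15 days after compound was added to paddy water standing 3 cm above the soil.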

yellow nutsedge = assay: Test C pre-/postemergence test; assay type: in vivo, Cyperus esculentus
Procedure, shortened: as §2

catchweed bedstraw = assay: Test C pre-/postemergence test; assay type: in vivo, Galium aparine
Procedure, shortened: as §2

rice = assay: Test C flooded paddy test; assay type: in vivo, Oryza sativa; settings: Flood
Procedure, shortened: as §3

cocklebur = assay: Test C pre-/postemergence test; assay type: in vivo, Xanthium strumarium
Procedure, shortened: as §2

downy brome = assay: Test C pre-/postemergence test; assay type: in vivo, Bromus tectorum
Procedure, shortened: as §2

[1] = Postemergence, 500 g ai/ha, 0 is no effect, 100 is complete control
[2] = Preemergence, 125 g ai/ha, 0 no effect, 100 complete control
[3] = 62 g ai/ha, Preemergence, scale 0 to 100
[4] = 125 g ai/ha, preemergence, scale 0 (no effect) to 100 (complete control)
[5] = Postemergence, 62 g ai/ha, scale 0 to 100, 0 no effect, 100 complete control
[6] = Postemergence, 125 g ai/ha, scale 0 to 100, 0 no effect, 100 complete control
[7] = Postemergence, 250 g ai/ha, scale 0 to 100, 0 no effect, 100 complete control
[8] = Preemergence, 31 g ai/ha, scale 0 to 100 (0 no effect, 100 complete control)
[9] = preemergence, 250 g ai/ha, scale 0 (no effect) to 100 (complete control)
[10] = 62 g ai/ha, scale 0 to 100 (0 no effect, 100 complete control)
[11] = 250 g ai/ha, scale 0 to 100, 0 no effect, 100 complete control, 13 to 15 days

In the case of `Cn1nc(C(F)(F)F)c(C[S+]([O-])c2ccc(F)c[n+]2[O-])c1OC(F)F` (centres unmarked) [Compound 58], the “Plant response rating, Pigweed” value (redroot pigweed; Postemergence, 125 g ai/ha) was 70, the “Pigweed plant response rating” value (redroot pigweed; [1]) was 90 and the “Pigweed plant response rating” value (redroot pigweed; [2]) was 80. The “Plant response rating, Pigweed” value (redroot pigweed; Preemergence, 500 g ai/ha) was 100, the “Oat, Wild plant response rating” value (wild oat; [3]) was 45 and the “Oat, Wild plant response rating” value (wild oat; [4]) was 80. The “Plant response rating (0 to 100), Oat, Wild” value (wild oat; Postemergence, 31 g ai/ha) was 0, the “Plant response rating, Oat, Wild” value (wild oat; [5]) was 0 and the “Plant response rating, Oat, Wild” value (wild oat; [6]) was 0. For the same compound, the “Plant response rating, Oat, Wild” value (wild oat; [7]) was 5, the “Plant response rating, Oat, Wild” value (wild oat; [8]) was 20 and the “Oat, Wild plant response rating” value (wild oat; [9]) was 80. The “Bermudagrass plant response rating” value (bermudagrass; 62 g ai/ha, Preemergence, scale 0 to 100 (0 no effect, 100 complete control)) was 100, the “Bermudagrass plant response rating” value (bermudagrass; [4]) was 100 and the “Plant response rating (0 to 100), Bermudagrass” value (bermudagrass; Postemergence, 31 g ai/ha) was 0. For the same compound, the “Plant response rating, Bermudagrass” value (bermudagrass; [5]) was 0, the “Plant response rating, Bermudagrass” value (bermudagrass; [6]) was 20 and the “Plant response rating, Bermudagrass” value (bermudagrass; [7]) was 40. For the same compound, the “Plant response rating, Bermudagrass” value (bermudagrass; [8]) was 100, the “Bermudagrass plant response rating” value (bermudagrass; [9]) was 100 and the “Blackgrass plant response rating” value (blackgrass; [3]) was 98. For the same compound, the “Blackgrass plant response rating” value (blackgrass; [4]) was 100, the “Plant response rating (0 to 100), Blackgrass” value (blackgrass; Postemergence, 31 g ai/ha) was 0 and the “Plant response rating, Blackgrass” value (blackgrass; [5]) was 0. The “Plant response rating, Blackgrass” value (blackgrass; [6]) was 30, the “Plant response rating, Blackgrass” value (blackgrass; [7]) was 80 and the “Plant response rating, Blackgrass” value (blackgrass; [8]) was 98. The “Blackgrass plant response rating” value (blackgrass; [9]) was 100, the “Kochia plant response rating” value (kochia; [3]) was 50 and the “Kochia plant response rating” value (kochia; [4]) was 100. The “Plant response rating (0 to 100), Kochia” value (kochia; Postemergence, 31 g ai/ha) was 0, the “Plant response rating, Kochia” value (kochia; [5]) was 0 and the “Plant response rating, Kochia” value (kochia; [6]) was 0. For the same compound, the “Plant response rating, Kochia” value (kochia; [7]) was 50, the “Plant response rating, Kochia” value (kochia; [8]) was 0 and the “Kochia plant response rating” value (kochia; [9]) was 100. The “Foxtail, Green plant response rating” value (green foxtail; [3]) was 98, the “Foxtail, Green plant response rating” value (green foxtail; [4]) was 100 and the “Plant response rating (0 to 100), Foxtail, Green” value (green foxtail; Postemergence, 31 g ai/ha) was 0. For the same compound, the “Plant response rating, Foxtail, Green” value (green foxtail; [5]) was 25, the “Plant response rating, Foxtail, Green” value (green foxtail; [6]) was 50 and the “Plant response rating, Foxtail, Green” value (green foxtail; [7]) was 80. The “Plant response rating, Foxtail, Green” value (green foxtail; [8]) was 70, the “Foxtail, Green plant response rating” value (green foxtail; [9]) was 100 and the “Lambsquarters plant response rating” value (lambsquarters; [3]) was 100. For the same compound, the “Lambsquarters plant response rating” value (lambsquarters; [4]) was 100, the “Plant response rating (0 to 100), Lambsquarters” value (lambsquarters; Postemergence, 31 g ai/ha) was 0 and the “Plant response rating, Lambsquarters” value (lambsquarters; [5]) was 0. The “Plant response rating, Lambsquarters” value (lambsquarters; [6]) was 0, the “Plant response rating, Lambsquarters” value (lambsquarters; [7]) was 30 and the “Plant response rating, Lambsquarters” value (lambsquarters; [8]) was 70. The “Lambsquarters plant response rating” value (lambsquarters; [9]) was 100, the “Plant response rating, Morningglory” value (morningglory; Postemergence, 125 g ai/ha) was 70 and the “Morningglory plant response rating” value (morningglory; [1]) was 90. For the same compound, the “Morningglory plant response rating” value (morningglory; [2]) was 60, the “Plant response rating, Morningglory” value (morningglory; Preemergence, 500 g ai/ha) was 100 and the “Soybean plant response rating” value (soybean; [3]) was 100. The “Soybean plant response rating” value (soybean; [4]) was 100, the “Plant response rating (0 to 100), Soybean” value (soybean; Postemergence, 31 g ai/ha) was 20 and the “Plant response rating (0 to 100), Soybean” value (soybean; Postemergence, 62 g ai/ha) was 40. The “Plant response rating, Soybean” value (soybean; [6]) was 60, the “Plant response rating, Soybean” value (soybean; [7]) was 65 and the “Plant response rating, Soybean” value (soybean; [8]) was 0. The “Soybean plant response rating” value (soybean; [9]) was 100, the “Cupgrass, Woolly plant response rating” value (woolly cupgrass; [3]) was 60 and the “Cupgrass, Woolly plant response rating” value (woolly cupgrass; [4]) was 95. The “Plant response rating (0 to 100), Cupgrass, Woolly” value (woolly cupgrass; Postemergence, 31 g ai/ha) was 0, the “Plant response rating, Cupgrass, Woolly” value (woolly cupgrass; [5]) was 0 and the “Plant response rating, Cupgrass, Woolly” value (woolly cupgrass; [6]) was 10. For the same compound, the “Plant response rating, Cupgrass, Woolly” value (woolly cupgrass; [7]) was 80, the “Plant response rating, Cupgrass, Woolly” value (woolly cupgrass; [8]) was 10 and the “Cupgrass, Woolly plant response rating” value (woolly cupgrass; [9]) was 100. The “Plant response rating, Ducksalad” value (duck salad; [10]) was 70, the “Plant response rating, Ducksalad” value (duck salad; [11]) was 80 and the “Nutsedge, Yellow plant response rating” value (yellow nutsedge; [3]) was 40. The “Nutsedge, Yellow plant response rating” value (yellow nutsedge; [4]) was 70, the “Plant response rating (0 to 100), Nutsedge, Yellow” value (yellow nutsedge; Postemergence, 31 g ai/ha) was 0 and the “Plant response rating, Nutsedge, Yellow” value (yellow nutsedge; [5]) was 0. For the same compound, the “Plant response rating, Nutsedge, Yellow” value (yellow nutsedge; [6]) was 0, the “Plant response rating, Nutsedge, Yellow” value (yellow nutsedge; [7]) was 50 and the “Plant response rating, Nutsedge, Yellow” value (yellow nutsedge; [8]) was 0. For the same compound, the “Nutsedge, Yellow plant response rating” value (yellow nutsedge; [9]) was 98, the “Galium plant response rating” value (catchweed bedstraw; [3]) was 70 and the “Galium plant response rating” value (catchweed bedstraw; [4]) was 100. For the same compound, the “Plant response rating, Galium” value (catchweed bedstraw; [8]) was 0, the “Galium plant response rating” value (catchweed bedstraw; [9]) was 100 and the “Plant response rating, Rice” value (rice; [10]) was 40. The “Plant response rating, Rice” value (rice; [11]) was 65, the “Cocklebur plant response rating” value (cocklebur; [3]) was 0 and the “Cocklebur plant response rating” value (cocklebur; [4]) was 0. For the same compound, the “Plant response rating (0 to 100), Cocklebur” value (cocklebur; Postemergence, 31 g ai/ha) was 0, the “Plant response rating, Cocklebur” value (cocklebur; [5]) was 0 and the “Plant response rating, Cocklebur” value (cocklebur; [6]) was 0. The “Plant response rating, Cocklebur” value (cocklebur; [7]) was 0, the “Plant response rating, Cocklebur” value (cocklebur; [8]) was 0 and the “Cocklebur plant response rating” value (cocklebur; [9]) was 40. For the same compound, the “Bromegrass, Downy plant response rating” value (downy brome; [3]) was 60, the “Bromegrass, Downy plant response rating” value (downy brome; [4]) was 100 and the “Plant response rating (0 to 100), Bromegrass, Downy” value (downy brome; Postemergence, 31 g ai/ha) was 0. The “Plant response rating, Bromegrass, Downy” value (downy brome; [5]) was 0, the “Plant response rating, Bromegrass, Downy” value (downy brome; [6]) was 0 and the “Plant response rating, Bromegrass, Downy” value (downy brome; [7]) was 60. For the same compound, the “Plant response rating, Bromegrass, Downy” value (downy brome; [8]) was 0 and the “Bromegrass, Downy plant response rating” value (downy brome; [9]) was 100.
